Patent publication US20020161052A1, “Terminally-branched polymeric linkers and polymeric conjugates containing the same” (priority 2001, published 2002)

Assays:
[1] = tested on: P388/O (murine lymphoid neoplasm) cell line; assay: In vitro bioassay, cell growth by Alamar Blue; assay type: cell-based; details: Mus musculus, 72 h; P388/O cells, three days, 37° C., in duplicate; SD ± 10%
Protocol: A series of in vitro assays were conducted to determine the IC50 for unmodified Ara-C and compound 10 using the P388/O (murine lymphoid neoplasm, Southern Research Institute) cell line. The P388/0 cells were grown in RPMI 1640 medium (Whittaker Bioproducts, Walkersville, Md.) +10% FBS (Hyclone Inc., Logan UT). Bioassays were performed in their respective media containing antibiotics and fungizone.
Ara-C was dissolved in DMSO and diluted to the appropriate concentration in culture media. The PEG-Ara-C compounds were dissolved in water and diluted to the appropriate concentrations in culture media.
The assays were performed in duplicate in 96-well microtiter cell culture plates. Two fold serial dilution of the compounds were done in the microtiter plates. Cells were detached by incubating with 0.1% Trypsin/Versene at 37°. Trypsin was inactivated by adding the appropriate media for each cell line containing 10% FBS. To each well of the microtiter plates, 10,000 cells were added. After three days, cell growth was measured by addition of a metabolic indicator dye, Alamar Blue, according to the manufacturer's protocol. The IC50 value for the test compounds and reference compound are provided above in the Table.

LX-1 = LX-1 subcutaneous tumor in athymic nude mice; assay type: in vivo; details: 100 mg/kg, i.v. q3d×4, athymic nude mice; mean baseline tumor volume 1000 mm^3
Protocol: Athymic nude mice were implanted subcutaneous with a 4-5 mm^3 tissue fragment of LX-1 collected from donor mice. The tumor trocar site was observed twice weekly and measured once palpable. The tumor volume for each mouse was determined by measuring two dimensions with calipers and calculated using the formula: tumor volume=(length×width^2)/2. […] The mice were sorted to evenly distribute tumor size, grouped into 4 to 6 mice/group, and ear punched for permanent identification. Drugs were administered intravenously q3d×4 (Day 1, 4, 7 and 10) via the tail vein at an approximate rate of 0.5 mL per minute.

`Nc1ccn([C@@H]2O[C@H](CO)[C@@H](O)[C@@H]2O)c(=O)n1` [Ara-C, cytosine arabinoside] was tested, and the IC50 [1] was 10 nM and the “LX-1 % T/C” value (LX-1) was 74.0%.
